# Measured values reported in patent publication US11780845B2 (Relay Therapeutics, Inc., priority 2019, dated 2023).
# Biological target: FGFR2 (Homo sapiens (Human), UniProt P21802)
# Assay: FGFR2 Biochemical Caliper Assay
# Method: Compounds of the present invention were also tested in a FGFR2 Biochemical Caliper Assay. Compounds were prepared in 10 mM DMSO solution and serially diluted into 11 concentrations by 3-fold dilution. […] 5 uL of ATP solution (100 uM) was added to start the reaction and the plate was incubated for 90 minutes, then 70 uL of stopping buffer (0.5M EDTA) was added to terminate the reaction. Each well was analyzed using EZ reader.
# FGFR2, sequence (P21802 22-821): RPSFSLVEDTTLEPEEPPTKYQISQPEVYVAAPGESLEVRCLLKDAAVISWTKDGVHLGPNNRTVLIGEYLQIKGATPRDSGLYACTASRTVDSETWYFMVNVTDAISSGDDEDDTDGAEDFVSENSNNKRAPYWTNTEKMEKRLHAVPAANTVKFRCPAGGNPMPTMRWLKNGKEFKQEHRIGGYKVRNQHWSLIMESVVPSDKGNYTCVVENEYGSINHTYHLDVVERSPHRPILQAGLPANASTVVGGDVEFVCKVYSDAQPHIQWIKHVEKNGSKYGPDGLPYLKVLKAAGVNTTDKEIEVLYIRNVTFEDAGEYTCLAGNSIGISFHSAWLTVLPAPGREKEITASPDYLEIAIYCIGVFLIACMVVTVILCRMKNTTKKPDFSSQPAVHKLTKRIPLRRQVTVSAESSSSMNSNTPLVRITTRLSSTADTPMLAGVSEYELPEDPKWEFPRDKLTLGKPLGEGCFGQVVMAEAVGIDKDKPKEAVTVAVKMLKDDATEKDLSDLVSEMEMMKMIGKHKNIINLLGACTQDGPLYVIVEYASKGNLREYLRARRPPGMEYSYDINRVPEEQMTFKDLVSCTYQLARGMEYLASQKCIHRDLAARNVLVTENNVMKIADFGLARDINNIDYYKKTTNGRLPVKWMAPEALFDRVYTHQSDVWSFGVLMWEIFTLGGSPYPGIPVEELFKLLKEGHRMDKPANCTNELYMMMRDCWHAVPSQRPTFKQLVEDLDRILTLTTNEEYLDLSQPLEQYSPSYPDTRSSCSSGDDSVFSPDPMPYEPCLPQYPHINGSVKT
row,IC50 [nM],SMILES
1,250 to 1000,C=C(C)C(=O)Nc1ccc(-c2c(-c3cc(O)c(Oc4ccccn4)c(Cl)c3)c3c(N)ncnc3n2C)cc1 [Example 162]
2,< 100,C=CC(=O)Nc1cccc(-c2c(-c3ccc(Oc4cccc(C)n4)c(OC)c3)c3c(N)ncnc3n2C)c1 [Example 7]
3,< 100,C=C(C)C(=O)Nc1ccc(-c2c(-c3ccc(C(=O)NCC4(C)CC4)cc3)c3c(N)ncnc3n2C)cc1 [Example 349]
4,1000 to 100000,C=C(C)C(=O)Nc1ccc(-c2c(-c3ccc(OCC(=O)O)cc3)c3c(N)ncnc3n2C)cc1 [Example 124]
5,250 to 1000,C=CC(=O)N1CCC(n2cc(-c3c(-c4ccc(Cl)c(OC)c4)c4c(N)ncnc4n3C)cn2)CC1 [Example 609]
6,1000 to 100000,C=C(C)C(=O)Nc1ccc(-c2c(-c3ccc(Oc4ccc(C)cn4)c(O)c3)c3c(N)ncnc3n2C)cc1 [Example 108]
7,250 to 1000,C=C(C)C(=O)Nc1ccc(-c2c(-c3ccc(-c4cc(C)no4)cc3)c3c(N)ncnc3n2C)cc1 [Example 277]
8,< 100,C=CC(=O)N1CCC(n2cc(-c3c(-c4ccc(Oc5ccccc5)cc4Cl)c4c(N)ncnc4n3C)cn2)CC1 [Example 615]
9,100 to 250,C=C(C)C(=O)Nc1ccc(-c2c(-c3ccc4c(c3)COC4c3cccc(C)n3)c3c(N)ncnc3n2C)cc1 (stereo not drawn) [Example 599]
10,1000 to 100000,Cn1c(-c2ccc(N3CCC=CC3=O)cc2)c(-c2ccc(C(=O)N3CCCC3)cc2)c2c(N)ncnc21 [Example 540]
11,1000 to 100000,C=C(C)C(=O)Nc1ccc(-c2c(-c3ccc4[nH]c(C(=O)N(C)C)cc4c3)c3c(N)ncnc3n2C)cc1 [Example 205]
12,1000 to 100000,C=C(C)C(=O)N(C)c1ccc(-c2c(-c3ccc(C(=O)NCC(C)(C)OC)cc3)c3c(N)ncnc3n2C)cc1 [Example 421]
13,< 100,C=CC(=O)Nc1ccc(-c2c(-c3ccc(Oc4cccc(C)c4)cc3)c3c(N)ncnc3n2C)cc1 [Example 28]
14,1000 to 100000,C=C(C)C(=O)Nc1ccc(-c2c(-c3ccc(CC(=O)N(C)C)c(F)c3)c3c(N)ncnc3n2C)cc1 [Example 173]
15,1000 to 100000,C=CC(=O)N1CCC(N2CC(c3c(-c4ccc(Oc5cccc(C)n5)cc4)c4c(N)ncnc4n3C)C2)CC1 [Example 659]
16,1000 to 100000,C=C(C)C(=O)Nc1ccc(-c2c(-c3cc(O)c(Oc4ncccn4)c(CC)c3)c3c(N)ncnc3n2C)cc1 [Example 200]
17,1000 to 100000,C=C(C)C(=O)Nc1ccc(-c2c(-c3ccc4c(c3)CNC4=O)c3c(N)ncnc3n2C)cc1 [Example 250]
18,100 to 250,C=CC(=O)Nc1ccc(-c2c(-c3ccccc3)c3c(N)ncnc3n2C)cc1 [Example 76]
19,100 to 250,C=CC(=O)N1CCC(n2cc(-c3c(-c4ccc(Oc5ccccc5)c(OC)c4)c4c(N)ncnc4n3C)cn2)CC1 [Example 612]
20,1000 to 100000,C=C(C)C(=O)Nc1ccc(-c2c(-c3ccc(OC4CCN(C)CC4)nc3)c3c(N)ncnc3n2C)cc1 [Example 187]
21,1000 to 100000,C=C(C)C(=O)Nc1ccc(-c2c(-c3ccc(C4=NNC(C)O4)nc3)c3c(N)ncnc3n2C)cc1 (stereo not drawn) [Example 285]
22,100 to 250,C=C(C)C(=O)Nc1ccc(-c2c(-c3ccc(S(=O)(=O)N4CCCC4)cc3)c3c(N)ncnc3n2C)cc1 [Example 85]
23,250 to 1000,C=C(C)C(=O)Nc1ccc(-c2c(-c3ccc(Oc4ccccc4)c(OC)c3)c3c(N)ncnc3n2C)cc1 [Example 30]
24,1000 to 100000,CCC(=O)Nc1ccc(-c2c(-c3ccc(Oc4cccc(C)n4)c(OC)c3)c3c(N)ncnc3n2C)cc1 [Example 66]
25,250 to 1000,C=C(C)C(=O)Nc1ccc(-c2c(-c3ccc(Oc4ccccc4)cc3)c3c(N)ncnc3n2C)cc1 [Example 23]

row,IC50 [nM],SMILES
1,< 100,C=CC(=O)N1CCc2cc(-c3c(-c4ccc(Oc5cccc(C)n5)c(OC)c4)c4c(N)ncnc4n3C)ccc21 [Example 10]
2,100 to 250,C=C(C)C(=O)Nc1ccc(-c2c(-c3ccc(-c4nc(C)c(C)o4)cc3)c3c(N)ncnc3n2C)cc1 [Example 279]
3,1000 to 100000,C=C(C)C(=O)Nc1ccc(-c2c(C3=CC[C@H](C(=O)N4CC5CCC(C5)C4)CC3)c3c(N)ncnc3n2C)cc1 [Example 420]
4,1000 to 100000,C=C(C)C(=O)Nc1ccc(-c2c(-c3cnn(CC4CCNCC4)c3)c3c(N)ncnc3n2C)cc1 [Example 221]
5,1000 to 100000,C=C(C)C(=O)Nc1ccc(-c2c(-c3ccc(S(=O)(=O)NC4CCCC4)cc3)c3c(N)ncnc3n2C)cc1 [Example 325]
6,250 to 1000,C=C(C)C(=O)Nc1ccc(-c2c(-c3ccc(-c4ncc[nH]4)cc3)c3c(N)ncnc3n2C)cc1 [Example 149]
7,1000 to 100000,C=CC(=O)Nc1ccc(-c2c(C3CCN(C(=O)CNC(=O)NC)CC3)c3c(N)ncnc3n2C)cc1 [Example 104]
8,250 to 1000,C=C(C)C(=O)Nc1ccc(-c2c(-c3ccc(-n4cc(C)cn4)nc3)c3c(N)ncnc3n2C)cc1 [Example 165]
9,1000 to 100000,C=C(C)C(=O)Nc1ccc(-c2c(-c3ccc(N(C)c4ncccn4)cc3)c3c(N)ncnc3n2C)cc1 [Example 62]
10,1000 to 100000,C=C(C)C(=O)Nc1ccc(-c2c(-c3ccc(Oc4ncc(F)cn4)c(N(C)C)c3)c3c(N)ncnc3n2C)cc1 [Example 443]
11,1000 to 100000,C=C(C)C(=O)Nc1ccc(-c2c(-c3ccc(C(=O)N4CCCC4)cc3)c3c(N)ncnc3n2C)cc1C [Example 407]
12,1000 to 100000,C=C(C)C(=O)Nc1ccc(-c2c(-c3ccc(CN4CCC(F)(F)CC4)c(F)c3)c3c(N)ncnc3n2C)cc1 [Example 159]
13,< 100,C=CC(=O)Nc1ccc(-c2c(Br)c3c(N)ncnc3n2C)cc1 [Example 37]
14,250 to 1000,C=C(C)C(=O)Nc1ccc(-c2c(-c3ccc(C(=O)N(C)CC4CCOC4)cc3)c3c(N)ncnc3n2C)cc1 (stereo not drawn) [Example 469]
15,< 100,C=C(C)C(=O)Nc1ccc(-c2c(-c3ccc(C(=O)N4CCCC4)cc3)c3c(N)ncnc3n2C)c(CC)c1 [Example 516]
16,< 100,C=C(C)C(=O)Nc1ccc(-c2c(-c3ccc(C(=O)NC4CCNC4)cc3)c3c(N)ncnc3n2C)cc1 (stereo not drawn) [Example 358]
17,< 100,CC#CC(=O)Nc1ccc(-c2c(-c3ccc(Oc4ncccn4)cc3)c3c(N)ncnc3n2C)cc1 [Example 84]
18,250 to 1000,C=C(C)C(=O)Nc1ccc(-c2c(-c3ccc(Oc4cccc(C)c4)c(OC)c3)c3c(N)ncnc3n2C)cc1 [Example 33]
19,1000 to 100000,C=C(C)C(=O)Nc1ccc(-c2c(-c3cnn(C4CN(C)C4)c3)c3c(N)ncnc3n2C)cc1 [Example 163]
20,1000 to 100000,Cn1c(-c2ccc(NC(=O)C=C3CCC3)cc2)c(-c2ccc(C(=O)N3CCCC3)cc2)c2c(N)ncnc21 [Example 525]
21,250 to 1000,C=C(C)C(=O)Nc1ccc(-c2c(-c3ccc(C(=O)NCC4CNC4)cc3)c3c(N)ncnc3n2C)cc1 [Example 334]
22,250 to 1000,C/C=C/C(=O)Nc1ccc(-c2c(-c3cccc(OC)c3)c3c(N)ncnc3n2C)cc1 [Example 72]
23,1000 to 100000,C=C(C)C(=O)Nc1ccc(-c2c(-c3ccc(-n4cncn4)nc3)c3c(N)ncnc3n2C)cc1 [Example 184]
24,250 to 1000,C=C(C)C(=O)Nc1ccc(-c2c(-c3ccc(C(=O)N4CCC(F)CC4)cc3)c3c(N)ncnc3n2C)cc1 [Example 251]

row,SMILES,IC50 [nM]
1,C=CC(=O)Nc1ccc(-c2c(C3=CCNCC3)c3c(N)ncnc3n2C)cc1 [Example 75],250 to 1000
2,C=C(C)C(=O)Nc1ccc(-c2c(C3=CC4CCC(C3)N4)c3c(N)ncnc3n2C)cc1 (stereo not drawn) [Example 168],100 to 250
